Here are results for 10 molecules from patent publication US10568876B2, “Tetrahydroisoquinoline derivatives useful as inhibitors of diacylglyceride O-acyltransferase 2” (Merck Sharp & Dohme Corp., priority 2014, dated 2020).

Each structure is given as a SMILES string. pIC50: −log10 of the molar value.

In this experiment the target is hDGAT2 (Homo sapiens (Human), UniProt Q96PD7). Put plainly: DGAT2 Enzymatic Activity Assay. It counts as biochemical. Conditions: hDGAT2 Sf-9 membrane prep; 25 μM diolein, 10 μM oleoyl-CoA; triolein product by LC/MS/MS; read-out: IC50 values for inhibition of DGAT2. The method, boiled down: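 Membranes from Sf-9 cells expressing untagged hDGAT2 (10 ng/μL) incubated at room temperature with 25 μM diolein and 10 μM oleoyl-CoA in 100 mM Tris pH 7.0, 20 mM MgCl2, 5% ethanol. Triolein product quantified by LC/MS/MS against spiked internal standard; IC50 from 4-parameter sigmoidal fit.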
Chain of hDGAT2 (Q96PD7 whole entry): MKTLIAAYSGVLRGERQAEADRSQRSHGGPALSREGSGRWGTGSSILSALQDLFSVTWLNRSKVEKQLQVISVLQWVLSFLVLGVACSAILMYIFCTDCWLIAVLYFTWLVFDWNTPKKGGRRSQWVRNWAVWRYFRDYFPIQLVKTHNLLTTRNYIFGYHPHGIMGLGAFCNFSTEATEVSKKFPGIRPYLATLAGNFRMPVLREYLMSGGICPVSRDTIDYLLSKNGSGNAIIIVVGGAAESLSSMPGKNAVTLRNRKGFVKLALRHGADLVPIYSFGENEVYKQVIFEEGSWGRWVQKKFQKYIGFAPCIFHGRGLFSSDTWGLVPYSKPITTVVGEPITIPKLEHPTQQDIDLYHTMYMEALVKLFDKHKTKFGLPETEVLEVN
As a reminder, the pIC50 is the IC50 on a negative log10 scale, so that one unit is a factor of ten. As to `COC(=O)c1cccc(-c2ccc(CNC(=O)C3CC3c3ccccc3)c3c2CCN(C(=O)C2(C)CC2)C3)c1` (stereo not shown) [Example 132, methyl 3-(2-(1-methylcyclopropanecarbonyl)-8-((2-phenylcyclopropanecarboxamido)methyl)-1,2,3,4-tetrahydroisoquinolin-5-yl)benzoate], the pIC50 is 6.28.

For `COC(=O)c1cccc(-c2ccc(CNC(=O)C3CC3c3ccccc3)c3c2CCN(Cc2ccccn2)C3)c1` (stereo not shown) [Example 94, methyl 3-(8-((2-phenylcyclopropanecarboxamido)methyl)-2-(pyridin-2-ylmethyl)-1,2,3,4-tetrahydroisoquinolin-5-yl)benzoate], the pIC50 was 6.61. Under `Cc1noc(C)c1-c1ccc(CNC(=O)[C@@H]2C[C@H]2c2ccccc2)c2c1CCN(C(=O)NC(C)(C)C)C2` (relative stereo) [Example 41, N-(tert-butyl)-5-(3,5-dimethylisoxazol-4-yl)-8-(((trans)-2-phenylcyclopropanecarboxamido)methyl)-3,4-dihydroisoquinoline-2(1H)-carboxamide] stands 5.84; under `Cc1noc(C2CC2C(=O)NCc2ccc(-c3cccc(OC(F)(F)F)c3)c3c2CN(C(=O)NC2(C)CCS(=O)(=O)C2)CC3)n1` (stereo not shown) [Example 58, N-(3-methyl-1,1-dioxidotetrahydrothiophen-3-yl)-8-((2-(3-methyl-1,2,4-oxadiazol-5-yl)cyclopropanecarboxamido)methyl)-5-(3-(trifluoromethoxy)phenyl)-3,4-dihydroisoquinoline-2(1H)-carboxamide], 7.62.

Turning to `COc1cccc(-c2ccc(CNC(=O)[C@@H]3C[C@H]3c3ccccc3)c3c2CCN(C(=O)NCCCC(=O)O)C3)c1` (relative stereo) [Example 64, 4-(5-(3-methoxyphenyl)-8-(((trans)-2-phenylcyclopropanecarboxamido)methyl)-1,2,3,4-tetrahydroisoquinoline-2-carboxamido)butanoic acid], the pIC50 was 5.37. Consider `COc1ccc(CNC(=O)CN2CCc3c(-c4cccc(OC(F)(F)F)c4)ccc(CNC(=O)C4CC4c4nc(C)no4)c3C2)c(OC)c1` (stereo not shown) [Example 85, N-((2-(2-((2,4-dimethoxybenzyl)amino)-2-oxoethyl)-5-(3-(trifluoromethoxy)phenyl)-1,2,3,4-tetrahydroisoquinolin-8-yl)methyl)-2-(3-methyl-1,2,4-oxadiazol-5-yl)cyclopropanecarboxamide], for which the pIC50 is 5.81. As to `Cc1noc([C@@H]2C[C@H]2C(=O)NCc2ccc(-c3cccc(OC(F)(F)F)c3)c3c2CN(C(=O)NC2COC2)CC3)n1` (relative stereo) [Example 73, 8-(((trans)-2-(3-methyl-1,2,4-oxadiazol-5-yl)cyclopropanecarboxamido)methyl)-N-(oxetan-3-yl)-5-(3-(trifluoromethoxy)phenyl)-3,4-dihydroisoquinoline-2(1H)-carboxamide], the pIC50 was 7.28. In the case of `COc1cccc(-c2ccc(CNC(=O)[C@@H]3C[C@H]3c3ccccc3)c3c2CCN(C(=O)NC(C)(C)CC(C)(C)C)C3)c1` (relative stereo) [Example 61, 5-(3-methoxyphenyl)-8-(((trans)-2-phenylcyclopropanecarboxamido)methyl)-N-(2,4,4-trimethylpentan-2-yl)-3,4-dihydroisoquinoline-2(1H)-carboxamide] it was 6.30; in that of `COC(=O)c1cccc(-c2ccc(CNC(=O)C3CC3c3ccccc3)c3c2CCN(C(=O)C2CC2C)C3)c1` (stereo not shown) [Example 131, methyl 3-(2-(2-methylcyclopropanecarbonyl)-8-((2-phenylcyclopropanecarboxamido)methyl)-1,2,3,4-tetrahydroisoquinolin-5-yl)benzoate], 6.44; in that of `CC(C)(C)NC(=O)N1CCc2c(-c3cccc(C(N)=O)c3)ccc(CNC(=O)[C@@H]3C[C@H]3c3ccccc3)c2C1` (relative stereo) [Example 42, N-(tert-butyl)-5-(3-carbamoylphenyl)-8-(((trans)-2-phenylcyclopropanecarboxamido)methyl)-3,4-dihydroisoquinoline-2(1H)-carboxamide], 6.81.
